Laboratory results as given in patent publication US10577362B2, “Substituted 2, 4-diamino-quinoline derivatives for use in the treatment of proliferative diseases” (GENOSCIENCE PHARMA, priority 2016, dated 2020).

Legend:
[1] = tested on: MOLM-14 (acute myeloid leukemia) cell line; test: CellTiter-Glo luminescent cell viability assay, MOLM-14; assay type: cell-based, human; settings: Homo sapiens; for viability at 4 µM: MOLM-14, compound at 4 μM; for viability at 4 µM / viability at 10 µM: 72 h; for viability at 10 µM: MOLM-14, compound at 10 μM; for EC50: MOLM-14 cell line, 72 h incubation, CellTiter-Glo, read-out: EC50, growth inhibition of MOLM-14
Summary of the method: (§1)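 72 h compound exposure, 37 °C, 5% CO2, 10% FBS medium; ATP luminescence read after 30 min RT equilibration. Viability as % of H2O/DMSO diluent control; EC50 = dose giving 50% of control signal. Duplicate points minimum.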

[2] = tested on: A375 (malignant melanoma) cell line; test: CellTiter-Glo luminescent cell viability assay, A375; assay type: cell-based, human; settings: Homo sapiens, A-375; for viability at 4 µM: A375, compound at 4 μM; for viability at 4 µM / viability at 10 µM: 72 h; for viability at 10 µM: A375, compound at 10 μM; for EC50: A375 cell line, 72 h incubation, CellTiter-Glo, read-out: EC50, growth inhibition of A375
Summary of the method: (§2)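 In a 72 h viability assay, compound-treated cells were compared against matched H2O or DMSO diluent controls by luminescence, points in at least duplicate.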

[3] = tested on: HCT-116 (colorectal carcinoma) cell line; test: CellTiter-Glo luminescent cell viability assay, HCT-116; assay type: cell-based, human; settings: Homo sapiens; for viability at 4 µM: HCT-116, compound at 4 μM; for viability at 4 µM / viability at 10 µM: 72 h; for viability at 10 µM: HCT-116, compound at 10 μM; for EC50: HCT-116 cell line, 72 h incubation, CellTiter-Glo, read-out: EC50, growth inhibition of HCT-116
Summary of the method: as §2

[4] = tested on: Huh7 (hepatocellular carcinoma) cell line; test: CellTiter-Glo luminescent cell viability assay, Huh7; assay type: cell-based, human; settings: Homo sapiens, Huh-7; for viability at 4 µM: Huh7, compound at 4 μM; for viability at 4 µM / viability at 10 µM: 72 h; for viability at 10 µM: Huh7, compound at 10 μM; for EC50: Huh7 cell line, 72 h incubation, CellTiter-Glo, read-out: EC50, growth inhibition of Huh7
Summary of the method: as §1

[5] = tested on: 786-O (renal adenocarcinoma) cell line; test: CellTiter-Glo luminescent cell viability assay, 786-O; assay type: cell-based, human; settings: Homo sapiens, 786-0; for EC50: 786-O cell line, 72 h incubation, CellTiter-Glo, read-out: EC50, growth inhibition of 786-O; for viability at 4 µM / viability at 10 µM: 786-O, 72 h; for viability at 4 µM: compound at 4 μM; for viability at 10 µM: compound at 10 μM
Summary of the method: as §2

[6] = tested on: HepG2 (hepatocellular carcinoma) cell line; test: CellTiter-Glo luminescent cell viability assay, HepG2; assay type: cell-based, human; settings: Homo sapiens; for viability at 4 µM / viability at 10 µM: HepG2, HepG, 72 h; for viability at 4 µM: compound at 4 μM; for viability at 10 µM: compound at 10 μM; for EC50: HepG2 cell line, 72 h incubation, CellTiter-Glo, read-out: EC50, growth inhibition of HepG2
Summary of the method: as §1

[7] = tested on: PANC-1 (prancreatic carcinoma) cell line; test: CellTiter-Glo luminescent cell viability assay, PANC-1; assay type: cell-based; settings: Homo sapiens; for viability at 4 µM: PANC-1, 4 μM; for viability at 4 µM / viability at 10 µM: 72 h, % of signal of diluent-treated cultures; for viability at 10 µM: PANC-1, 10 μM; for EC50: PANC-1 cell line, 72 h incubation, CellTiter-Glo, read-out: EC50 (growth inhibition assay of PANC-1 cell line)
Summary of the method: as §1

| Compound | viability at 4 µM [1] [%] | viability at 10 µM [1] [%] | EC50 [1] [µM] | viability at 4 µM [2] [%] | viability at 10 µM [2] [%] | EC50 [2] [µM] | viability at 4 µM [3] [%] | viability at 10 µM [3] [%] | EC50 [3] [µM] | viability at 4 µM [4] [%] | viability at 10 µM [4] [%] | EC50 [4] [µM] | EC50 [5] [µM] | viability at 4 µM [5] [%] | viability at 10 µM [5] [%] | viability at 4 µM [6] [%] | viability at 10 µM [6] [%] | EC50 [6] [µM] | viability at 4 µM [7] [%] | viability at 10 µM [7] [%] | other results |
| --- | --- | --- | --- | --- | --- | --- | --- | --- | --- | --- | --- | --- | --- | --- | --- | --- | --- | --- | --- | --- | --- |
| CN(C)C1CCN(c2c(C#N)c(NCc3ccc(Cl)cc3)nc3ccccc23)CC1 [Compound 3184CN, 2-(4-chlorobenzylamino)-3-cyano-4-[4-(dimethylamino)piperidin-1-yl]quinoline] | 71.8 | 0.6 | 0.5 to 5 | 59.5 | 0.5 | 0.5 to 5 | 60.5 | 0.5 | 0.5 to 5 | 77.4 | 0.6 | 5 to 10 | 0.5 to 5 | 54.1 | 0.7 | 72.9 | 0.7 | 0.5 to 5 | 90.7 | 24.1 | EC50 [7]: 5 to 10 µM |
| CCN(CC)C1CCN(c2c(C#N)c(NCc3ccc(Cl)cc3)nc3ccccc23)C1 (centres unmarked) [Compound 126CN, 2-(4-chloro-benzylamino)-3-cyano-4-[3-(diethylamino)pyrrolidin-1-yl]quinoline] | 105 | 99.6 | – | 92.5 | 89.9 | – | 97 | 93.3 | – | 98.9 | 96.1 | – | – | 91.2 | 87.6 | 104 | 102 | – | 106 | 103 | – |
| CN(C)C1CCCN(c2c(C#N)c(NCc3ccc(Cl)cc3)nc3ccccc23)C1 (centres unmarked) [Compound 3164CN, 2-(4-chlorobenzylamino)-3-cyano-4-[3-(dimethylamino)piperidin-1-yl]quinoline] | 113 | 74.6 | – | 89.2 | 39.3 | – | 91.2 | 38.4 | – | 91.9 | 51.1 | – | – | 97.1 | 64.1 | 101 | 52.9 | – | 98.7 | 69.6 | – |
| CC(C)(C)NC1CCN(c2c(C#N)c(NCc3ccc(C(F)(F)F)cc3)nc3ccccc23)CC1 [Compound 3292CN, 2-[4-(trifluoromethyl)benzylamino]-3-cyano-4-[4-(tert-butylamino)piperidin-1-yl]quinoline] | 54.7 | 0.3 | 5 to 10 | 0.3 | 0.2 | 0.5 to 5 | 0.3 | 0.1 | 0.5 to 5 | 10.2 | 0.2 | 0.5 to 5 | 0.5 to 5 | 0.5 | 0.2 | 20.5 | 0.2 | 0.5 to 5 | 75.6 | 25 | EC50 [7]: 5 to 10 µM |
| CC(C)(C)NC1CCN(c2c(C#N)c(NCc3ccccn3)nc3ccccc23)CC1 [Compound 3308CN, 2-[(pyridin-2-ylmethyl)amino]-3-cyano-4-[4-(tert-butylamino)piperidin-1-yl]quinoline] | 85.8 | 57.1 | – | 96.3 | 67.7 | – | 72.8 | 32.9 | – | 88.6 | 74.2 | – | – | 101 | 81.1 | 92.6 | 76.5 | – | 102 | 99.1 | – |
| CC(C)(C)NC1CCN(c2c(F)c(NCc3ccc(F)cc3)nc3ccccc23)CC1 [Compound 240F, 2-(4-fluorobenzylamino)-3-fluoro-4-[4-(tert-butylamino)piperidin-1-yl]quinoline] | 83.4 | 50.8 | 5 to 10 | 73.6 | 0.2 | 5 to 10 | 49.6 | 0.2 | 5 to 10 | 70.5 | 2.5 | 5 to 10 | 5 to 10 | 94.7 | 28.7 | 46.1 | 0.1 | 5 to 10 | 96.5 | 59.5 | EC50 [7]: 5 to 10 µM |
| N#Cc1c(NCc2ccc(Cl)cc2)nc2ccccc2c1N1CCC(N2CCCC2)CC1 [Compound 200CN, 2-(4-chlorobenzylamino)-3-cyano-4-[4-(pyrrolidin-1-yl)piperidin-1-yl]quinoline] | 92.7 | 0.4 | 0.5 to 5 | 65.9 | 0.4 | 0.5 to 5 | 78.1 | 0.5 | 0.5 to 5 | 83.1 | 0.7 | 5 to 10 | 0.5 to 5 | 74.8 | 2.2 | 90.8 | 0.9 | 5 to 10 | 98.8 | 60.8 | EC50 [7]: 5 to 10 µM |
| CCN(CC)C1CCN(c2c(C#N)c(NCc3ccc(Cl)cc3)nc3ccccc23)CC1 [Compound 184CN, 2-(4-chlorobenzylamino)-3-cyano-4-[4-(diethylamino)piperidin-1-yl]quinoline] | 95.1 | 0.7 | 5 to 10 | 53.7 | 0.8 | 0.5 to 5 | 65.7 | 0.9 | 5 to 10 | 74.7 | 0.7 | 5 to 10 | 5 to 10 | 72.6 | 1.1 | 72.4 | 0.8 | 5 to 10 | 91.8 | 46.6 | EC50 [7]: 5 to 10 µM |
| CC(C)(C)OC(=O)NC1CCCN(c2c(C#N)c(NCc3ccc(Cl)cc3)nc3ccccc23)C1 (centres unmarked) [Compound 154CN] | 112 | 113 | – | 96.2 | 88.5 | – | 98.8 | 87.2 | – | 101 | 93.5 | – | – | 94.1 | 82.3 | 105 | 97.5 | – | 107 | 99 | – |
| CNC1CCCN(c2c(C#N)c(NCc3ccc(Cl)cc3)nc3ccccc23)C1 (centres unmarked) [Compound 3158CN, 2-(4-chlorobenzylamino)-3-cyano-4-[3-(methylamino)piperidin-1-yl]quinoline] | 91.5 | 0.6 | 5 to 10 | 70.9 | 0.3 | 0.5 to 5 | 74.2 | 0.4 | 0.5 to 5 | 86.4 | 0.5 | 5 to 10 | 5 to 10 | 88.4 | 0.5 | 84.6 | 0.4 | 0.5 to 5 | 107 | 53.1 | EC50 [7]: 5 to 10 µM |
| CNC1CCN(c2c(C#N)c(NCc3ccc(Cl)cc3)nc3ccccc23)C1 (centres unmarked) [Compound 3192CN, 2-(4-chloro-benzylamino)-3-cyano-4-[3-(methylamino)pyrrolidin-1-y]quinoline] | 0.6 | 0.3 | 5 to 10 | 104 | 0.4 | 0.5 to 5 | 57.3 | 0.2 | 0.5 to 5 | 78 | 0.4 | 0.5 to 5 | 0.5 to 5 | 0.4 | 0.2 | 59.5 | 0.4 | 0.5 to 5 | 77.1 | 1.5 | EC50 [7]: 5 to 10 µM |
